According to patent US5578496A, “Detection of autoantibodies associated with the disease myasthenia gravis” (Board of Regents, Baylor College of Medicine, priority 1994, dated 1996):
*1 amine or outer side, *2 acyl side, *3 side chain or, on linkers, in order; H or OH if unused. Bridges are numbered along the chain shown (N, C = ends). Where no end group is shown, it is not given here. mPEG = monomethoxypolyethylene glycol; Suc = O=C(CCC(=O)[*:2])[*:1]

Columns and labels:
[1] = test system: experimental autoimmune myasthenia gravis (EAMG); experiment: Electromyography (repetitive nerve stimulation) for electrophysiological EAMG after immunization with Torpedo AChR; format: in vivo, C57/BL6 mice
Procedure: Six weeks old C57/BL6 mice were purchased from Charles River Breeding Laboratories (Wilmington, Mass.). Preimmune sera were obtained from the mice for use as controls in subsequent antibody binding assays. […] Then, on day 0, the mice were immunized subcutaneously in one hind footpad and intramuscularly in the same side shoulder with 20 μg of Torpedo AChR in 100 μl emulsion containing equal volumes of complete Freund's adjuvant and PBS. Thirty days later, the mice were immunized with a similar dose of the receptor in the opposite footpad and shoulder. On the 37th day, test bleeds were obtained from the mice for determination of the antibody titers. Electrophysiological studies were performed on the 38th and 39th days. Finally, the mice were sacrificed on the 40th day and lymph node cells were obtained for T cell studies. To document the electrophysiological evidence of EAMG, amplitudes of serial muscle action potentials were measured by electromyography (EMG) during the repetitive stimulation of the nerve in immunized mice, using the Mystro EMG system (TECA Corporation). A pair of wire electrodes were surgically implanted, encircling the sciatic nerve, two days before EMG. The nerve was stimulated through the implanted electrodes by 3 Hz trains of supramaximal electric current with a duration of 200 microseconds. The corresponding muscle action potentials were recorded with an electrode subcutaneously inserted over the gastrocnemius muscle. A reference electrode was placed at the ankle. Ether inhalation was used during the surgical and recording procedures. […] Students' t-test was used to analyze the differences of amplitude changes between the two groups. A typical myasthenic response of a greater than 10% decrement was considered to constitute an electrophysiological evidence of EAMG. The frequency of electrophysiological EAMG was calculated in each group and analyzed by chi-square test.

peptide α125-148 = experiment: Radioimmunoassay of anti-AChR antisera from pretreated mice: antibody binding to peptide α125-148; format: in vivo, C57/BL6 mice
Procedure: (§1) Six weeks old C57/BL6 mice were purchased from Charles River Breeding Laboratories (Wilmington, Mass.). Preimmune sera were obtained from the mice for use as controls in subsequent antibody binding assays. After 2-weeks rest, the mice were divided into three groups which received, at eleven, seven and three days before immunization with AChR, an intraperitoneal injection (5 μg in 25 μl of PBS [0.15M NaCl in 0.01M sodium phosphate buffer, pH 7.2]) of either the mPEG-(α125-148) conjugate (Group 1), mPEG-nonsense peptide conjugate (Group 2) or unaltered free peptide α125-148 (Group 3) (FIG. 5). Then, on day 0, the mice were immunized subcutaneously in one hind footpad and intramuscularly in the same side shoulder with 20 μg of Torpedo AChR in 100 μl emulsion containing equal volumes of complete Freund's adjuvant and PBS. Thirty days later, the mice were immunized with a similar dose of the receptor in the opposite footpad and shoulder. On the 37th day, test bleeds were obtained from the mice for determination of the antibody titers. Electrophysiological studies were performed on the 38th and 39th days. Finally, the mice were sacrificed on the 40th day and lymph node cells were obtained for T cell studies.
One mg of the synthetic peptide was dissolved in 50 μl dimethylformamide and then diluted with PBS to 25 μg/ml. A solution of Torpedo AChR in PBS was prepared to contain 2.5 μg/ml. Aliquots (50 μl/well) of the peptide or AChR solutions were added to a 96-well microtiter plate (Falcon Micro Test III flexible assay plate, Becton Dickinson, Oxcard, Calif.) and the plates were incubated at room temperature overnight. After washing 3 times with PBS, the plates were blocked with 0.25% bovine serum albumin (BSA [bovine serum albumin]) in PBS (50 μl/well) at 37° C. for 90 minutes. The plates were washed again 5 times with PBS and to each well was added 50 μl of the serum from AChR-immunized mice, pre-diluted with PBS containing 0.10% BSA, and the plates were covered and allowed to stand at room temperature overnight. After 5 washes with PBS, 50 μl of rabbit IgG antibodies (2.5 μg/ml) against mouse IgG and IgM (Accurate Chemical Scientific Corporation, Westbury, N.Y.) was added to each well and the plates were incubated at 37° C. for 3 hours. The plates were then washed 5 times with PBS and ^125 I-labeled protein A (2×10^5cpm in 50 μl of PBS-0.1% BSA) was added to each well. The plates were incubated for 3 hours at room temperature, after which they were washed and the wells were cut out and counted for bound radioactivity. Pre-immune serum samples, obtained from the mice prior to any experimental treatments, were used as controls to correct for non-specific binding.

peptide α182-198 = experiment: Radioimmunoassay of anti-AChR antisera from pretreated mice: antibody binding to peptide α182-198; format: in vivo, C57/BL6 mice; conditions: Group 1 compared to control groups; P>0.1-0.5
Procedure: as §1, with “Finally, the mice were sacrificed on the 40th day and lymph node cells were obtained for T cell studies.” left out
(§2) One mg of the synthetic peptide was dissolved in 50 μl dimethylformamide and then diluted with PBS to 25 μg/ml. […] The plates were incubated for 3 hours at room temperature, after which they were washed and the wells were cut out and counted for bound radioactivity. […]

peptide α45-60 = experiment: Radioimmunoassay of anti-AChR antisera from pretreated mice: antibody binding to peptide α45-60; format: in vivo, C57/BL6 mice; conditions: Group 1 compared to control groups; P>0.1-0.5
Procedure: as §1, with “Finally, the mice were sacrificed on the 40th day and lymph node cells were obtained for T cell studies.” left out
as §2

whole Torpedo AChR = experiment: Radioimmunoassay of anti-AChR antisera from pretreated mice: antibody binding to whole AChR; format: in vivo, C57/BL6 mice; conditions: Group 1 compared to control groups; P>0.5
Procedure: as §1, with “Finally, the mice were sacrificed on the 40th day and lymph node cells were obtained for T cell studies.” left out
as §2

lymph node cells (LNC) = experiment: T cell proliferation assay of lymph node cells from AChR-primed mice; format: cell-based, C57/BL6 mice; conditions: LNC challenged with overlapping Torpedo AChR α chain peptides, α125-148 and AChR; compared with mPEG-Nonsense peptide group
Procedure: as §1, with “Thirty days later, the mice were immunized with a similar dose of the receptor in the opposite footpad and shoulder. On the 37th day, test bleeds were obtained from the mice for determination of the antibody titers. Electrophysiological studies were performed on the 38th and 39th days. Finally, the mice were sacrificed on the 40th day and lymph node cells were obtained for T cell studies.” left out
Lymph node cells (LNC) were harvested from the AChR-primed mice of each group ten or eleven days after the last AChR immunization. […] The number of viable cells was determined by vital staining with fluorescein diacetage. […] After incubation for 3 days at 37° C. in a humidified air/CO2 (19:1) atmosphere, the cultures were pulsed (18 hr) with 1 μCi/well [^3 H]-thymidine (Research Products International, Mount Prospect, Ill.) and then harvested on to glass microfiber filters (Whatman, Clinton, N.J.) for counting of radioactivity by liquid scintillation.

[2] = 5 μg i.p. at 11, 7 and 3 days before immunization with Torpedo AChR, EMG on days 38-39

“mPEG-(α125-148): monomethoxypolyethylene glycol coupled via succinyl to the N-terminal α-NH2 of Torpedo AChR peptide α125-148 (Group 1) ({mPEG-Suc}-KSYCEIIVTHFPFDQQNCTMKLGI; disulfide 4-18 (inferred); UniProt P02710 149-172, looked up, fragment)” was tested, and the “mean amplitude change of muscle action potentials” value [1, 2] was -5.4%, the “mice showing a decremental response greater than 10%” value [1, 2] was 20% and the “effect on development of electrophysiological EAMG” value ([1]; prior administration, then immunization with AChR) was “suppresses development of electrophysiological EAMG but the suppression was incomplete”. The “antibody binding to peptide α125-148, mean net cpm ± standard deviation” value (peptide α125-148; anti-AChR antisera of individual mice, day 37 bleeds) was 1414±1801 cpm, the “antibody binding to peptide α125-148, pooled antisera in serial dilutions” value (peptide α125-148; pooled serum of each group, various dilutions) was “consistently lower amounts of antibody binding” and the “antibodies bound to peptide α125-148 in anti-AChR antisera” value (peptide α125-148; pretreatment prior to immunization with Torpedo AChR) was “significantly decreased”. The “antibodies against peptide α182-198” value (peptide α182-198) was “no significant suppression”, the “antibodies against peptide α45-60” value (peptide α45-60) was “no significant suppression” and the “antibodies against whole receptor” value (whole Torpedo AChR) was “no significant suppression”. For the same substance, the “T cell proliferation profiles” value (lymph node cells (LNC)) was “did not show meaningful differences”.
